Test results published in patent US9428790B2, “Simultaneous measurement of thrombin generation and clot strength in plasma and whole blood” (SYNAPSE B.V., priority 2012, dated 2016).

Key:
Type in all cases: biochemical
plasmin = molecular target: T1, plasmin (Homo sapiens, UniProt P00747); assay: Plasmin generation (raw fluorescence, H-Ala-Leu-Lys-AMC) in tPA-triggered platelet-poor plasma; conditions: 100 U/ml tPA, rotation 300/s, FIG. 8 upper panel
T1 construct: from tissue; host or cells: platelet-poor plasma from citrated blood
T1 sequence (P00747 581-810 limits assumed): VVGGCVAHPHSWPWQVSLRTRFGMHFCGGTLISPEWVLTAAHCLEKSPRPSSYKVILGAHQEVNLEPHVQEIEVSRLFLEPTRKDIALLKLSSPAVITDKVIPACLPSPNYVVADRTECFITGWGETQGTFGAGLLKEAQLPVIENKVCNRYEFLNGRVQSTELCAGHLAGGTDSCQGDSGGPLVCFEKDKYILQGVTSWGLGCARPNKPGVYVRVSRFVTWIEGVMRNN
T1 sequence (P00747 97-580 partner limits assumed): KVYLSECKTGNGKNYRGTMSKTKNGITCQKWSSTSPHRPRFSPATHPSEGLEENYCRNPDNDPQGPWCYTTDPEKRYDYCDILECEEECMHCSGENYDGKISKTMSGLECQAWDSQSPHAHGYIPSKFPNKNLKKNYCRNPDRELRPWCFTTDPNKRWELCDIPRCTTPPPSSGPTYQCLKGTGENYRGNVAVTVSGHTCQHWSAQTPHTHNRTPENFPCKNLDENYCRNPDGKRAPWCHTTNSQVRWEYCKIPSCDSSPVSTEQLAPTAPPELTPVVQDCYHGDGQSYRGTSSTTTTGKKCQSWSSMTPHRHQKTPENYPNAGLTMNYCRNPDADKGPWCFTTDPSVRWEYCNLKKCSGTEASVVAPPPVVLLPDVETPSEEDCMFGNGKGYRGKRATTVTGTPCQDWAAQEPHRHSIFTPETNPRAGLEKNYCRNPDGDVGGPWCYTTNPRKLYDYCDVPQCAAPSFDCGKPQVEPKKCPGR
Protocol: (§1) Blood was obtained through venipuncture (1 volume tri-sodium citrate 0.13M to 9 volumes blood). Free flow or minimal suction should be employed, and vacuum containers avoided. Platelet poor plasma (PPP) was obtained by centrifugation of blood twice at 2630 g for 10 min.
(§2) Recombinant relipidated tissue factor (rTF) not containing polybrene or Ca^++ was from Dade Behring (Marburg, Germany). For each experiment, a fresh mixture of Tissue Factor (TF) and phospholipids vesicles (PL) (Avanti, Alabaster, Ala., USA) was prepared, resulting in a final concentration of 5 pM TF and 4 μM PL in Hepes buffer (20 mM, pH 7.35) containing 5 mg/l BSA (Sigma, A-7030). […] Upon splitting by thrombin, it releases the fluorescent rhodamine (Rho), which is measured by a 470 nm excitation and a 520 emission filter set. […] The by plasmin released fluorescent 7-Amino-4-methylcoumarin (AMC) is measured by a 365 nm excitation and a 430 nm emission filter set. […]
A total of 700 μl (in case of plasma) or 800 μl (in case of blood) sample and substrate was added on the thermostated sample holder at 37° C. of the rheometer. […] Immediately after addition of the FluCa, the viscosity (or Torque in case of oscillation of the measuring system) and fluorescence were measured every 10 seconds and every second at 470/520 nm respectively. […]

fibrinolysis = assay: Clot strength (torque, oscillation mode) in triggered whole blood with tPA; conditions: 300 U/ml tPA, oscillation 10 Hz, angle 1°, inset
Protocol: as §1
as §2, with “A-7030). Recombinant tissue plasminogen activator (tPA) was obtained from Boehringer Ingelheim GmbH, Germany as actylase™.” for “A-7030).”
(§3) Using a signal substrate with a fluorescent leaving group, thrombin generation was measured via a fluorescence detector. The strength of the formed fibrin clot was monitored by an oscillating or rotating measuring system of a specially designed rheometer (Physica MCR 301, Anton Paar Germany GmbH, Ostfildern). […]

fibrin = assay: Clot strength (viscosity) in tPA-triggered platelet-poor plasma on rotary rheometer; conditions: 100 U/ml tPA, rotation 300/s, FIG. 8 lower panel
Protocol: as §1
as §2, with “A-7030). Recombinant tissue plasminogen activator (tPA) was obtained from Boehringer Ingelheim GmbH, Germany as actylase™.” for “A-7030).”
as §3

fibrin polymerization = assay: Clot strength (viscosity) in triggered platelet-poor plasma on rotary rheometer with Doolittle peptide; conditions: 0.5 mM up to 2 mM peptide, shear rate 300/s, 5 pM TF, 4 μM PL, FIG. 6 upper panel
Protocol: as §1
as §2, with “A-7030). Recombinant tissue plasminogen activator (tPA) was obtained from Boehringer Ingelheim GmbH, Germany as actylase™.” for “A-7030).”
as §3

thrombin generation = assay: Thrombin generation (fluorogenic substrate, calibrated) in triggered platelet-poor plasma with Doolittle peptide; conditions: 0.5 mM up to 2 mM peptide, shear rate 300/s, FIG. 6 lower panel
Protocol: as §1, §2
The calibrator, α2M-Thrombin complex (α2MT), was prepared in house as previously described. The concentration of α2M-Thrombin is measured by its ability to hydrolyze the chromogenic substrate S2238. […] After adding bovine antithrombin and heparin (LEO) this material was ready for use as a thrombin calibrator.
Using a signal substrate with a fluorescent leaving group, thrombin generation was measured via a fluorescence detector. […]

Substance	plasmin generation (raw fluorescence) (plasmin)	fibrinolysis (torque) (fibrinolysis)	viscosity (degradation of fibrin) (fibrin)	viscosity of the sample compared to the control sample (fibrin polymerization)	effect on the thrombin generation (thrombin generation)
tPA: Recombinant tissue plasminogen activator (tPA) obtained from Boehringer Ingelheim GmbH as actylase™	activation of plasmin	fibrinolysis could be followed	decrease in viscosity	–	–
Gly-Pro-Arg-Pro (GPRP; printed: Gly-Pro-Arg-Pro) [Doolittle peptide]	–	–	–	significantly decreased the viscosity	minimal
